Calls of active or inactive are those of the source. No cut-off for these calls is given here.
Key:
[1] = Cytotoxicity against human Hep3B cells after 96 hrs by WST method; assay type: functional, cell-based, Hep 3B2
HeLa = assay: Cytotoxicity against human HeLa cells after 96 hrs by WST method; assay type: functional, cell-based
K562 = assay: Cytotoxicity against human K562 cells after 96 hrs by WST method; assay type: functional, cell-based; details: K562, 96 h
HL-60 = assay: Cytotoxicity against human HL60 cells after 96 hrs by WST method; assay type: functional, cell-based; details: HL-60, 96 h
Escherichia coli = assay: Antimicrobial activity against Escherichia coli at 50 ug/disk after 48 hrs by paper disk method; assay type: functional, organism-based
Bacillus cereus = assay: Antimicrobial activity against Bacillus cereus at 50 ug/disk after 48 hrs by paper disk method; assay type: functional, organism-based
Staphylococcus aureus = assay: Antimicrobial activity against Staphylococcus aureus at 50 ug/disk after 48 hrs by paper disk method; assay type: functional, organism-based
Salmonella enteritidis = assay: Antimicrobial activity against Salmonella enteritidis at 50 ug/disk after 48 hrs by paper disk method; assay type: functional, organism-based; details: Salmonella enterica subsp. enterica serovar Enteritidis

O=C1N[C@@H](Cc2ccccc2)C(=O)N(O)[C@@H]1C[C@]1(O)c2ccccc2N2C(=O)C[C@@H](c3ccccc3)N[C@H]21
IC50 [1]: > 85 µM | IC50 (HeLa): > 85 µM | IC50 (K562): > 85 µM | IC50 (HL-60): > 85 µM | Activity (Escherichia coli): inactive | Activity (Bacillus cereus): inactive | Activity (Staphylococcus aureus): inactive | Activity (Salmonella enteritidis): inactive

— ChEMBL document CHEMBL3632583, “Haenamindole, an unusual diketopiperazine derivative from a marine-derived Penicillium sp. KCB12F005” (Bioorg Med Chem Lett, 2015)
